From patent publication US20240277800A1, “PHARMACEUTICAL COMPOSITION COMPRISING MACROCOSINE COMPOUND AND METHOD FOR PREPARING MACROCOSINE COMPOUND” (priority 2021, published 2024)
≈ marks a conversion by molar mass, not a printed value. Like-named read-outs stand apart in the source and are kept apart here.

Key:
[1] = tested on: Mycobacterium intracellulare ATCC 13950; assay: Antibacterial activity against nontuberculous mycobacteria, resazurin MIC50; format: cell-based; details: ATCC13950
[2] = tested on: Mycobacterium avium ATCC 700898; assay: as above; format: cell-based; details: ATCC700898
C. difficile = assay: Antibacterial activity against Clostridium difficile, agar medium dilution MIC (CLSI); format: cell-based; details: Clostridioides difficile
Il-1B = assay: Anti-inflammatory efficacy: IL-1B secretion in LPS-treated RAW 264.7 cells (ELISA); format: cell-based, mouse; details: RAW 264.7 cells, 5, 10, 20, 40 ug/mL plus 1 ug/ml LPS, 24 hours, versus LPS only
Description: (§1) In order to confirm the anti-inflammatory effect of the micrococcin compound (Compound 13; Micrococcin P2) prepared in Example 1 of the present invention, an inflammatory cytokine secretion amount was measured.
(§2) RAW 264.7 cells which are mouse-derived macrophage cell lines were distributed from Korean Cell Line Bank (KCLB), and a DMEM (Dulbeccon's modified Eagle's medium; PAA, Austria) medium including 1% Penicillin-Streptomycin and 10% FBS (fetal bovine serum; Gibco Laboratories) was used. Cells were cultured under the conditions of 37° C. and 5% CO2.
(§3) The cultured RAW 264.7 cells were dispensed at 2x10^5 cells/well in a 24-well plate, the micrococcin compound (Compound 13; Micrococcin P2) prepared in Example 1 was treated by concentrations (5, 10, 20, 40 ug/mL) and then treated 1 ug/ml of lipopolysaccharide (LPS), and culture was performed in an incubator (5% CO2, 37° C.) for 24 hours.
(§4) A control group was a cell group which was not treated, and as a negative control group, a cell group treated with only LPS was used.
(§5) After completion of culture, a medium of each well was collected (at 4° C., 12,000 rpm for 10 minutes) and centrifuged, a supernatant was taken, and the concentration of inflammatory cytokine (IL-6, Il-1B) in the medium was quantified using an ELISA kit (R&D system, BD).

M. tuberculosis = assay: Antibacterial activity against tuberculosis bacteria, resazurin (REMA) MIC50; format: cell-based; details: Mycobacterium tuberculosis, read-out: MIC50
IL-6 = assay: Anti-inflammatory efficacy: IL-6 secretion in LPS-treated RAW 264.7 cells (ELISA); format: cell-based, mouse; details: RAW 264.7 cells, 5, 10, 20, 40 ug/mL plus 1 ug/ml LPS, 24 hours, versus LPS only
Description: as §1, §2, §3, §4, §5

[3] = tested on: C. difficile Ribotype 027; assay: Efficacy in Clostridium difficile-infected mouse model (survival); format: in vivo; details: C57BL/6J mouse, 30 mg/kg orally once a day for 5 days
[4] = tested on: Mycobacterium abscessus ATCC 19977; assay: Antibacterial activity against nontuberculous mycobacteria, resazurin MIC50; format: cell-based; details: Mycobacteroides abscessus, ATCC19977
[5] = Mycobacterium intracellulare ATCC 13950, read-out: MIC50
[6] = Mycobacterium avium ATCC 700898, read-out: MIC50
[7] = ATCC9689, C. difficile ATCC 9689, read-out: MIC
[8] = ATCC17858, C. difficile ATCC 17858, read-out: MIC
[9] = ATCC43255, C. difficile ATCC 43255, read-out: MIC
[10] = ATCC51695, C. difficile ATCC 51695, read-out: MIC
[11] = ATCCBAA1871, C. difficile ATCC BAA-1871, read-out: MIC
[12] = C. difficile Clinical isolate #1, read-out: MIC
[13] = C. difficile Clinical isolate #2, read-out: MIC

CC[C@H]1OC(=O)[C@H](C)[C@@H](O[C@H]2C[C@@](C)(OC)[C@@H](O)[C@H](C)O2)[C@H](C)[C@@H](O[C@@H]2O[C@H](C)C[C@H](N(C)C)[C@H]2O)[C@](C)(OC)C[C@@H](C)C(=O)[C@H](C)[C@@H](O)[C@]1(C)O [CLR, Clarithromycin] gave an MIC50 [1, 5] of 0.143 µM (≈ 0.107 µg/mL) and an MIC50 [2, 6] of 0.076 µM (≈ 0.0568 µg/mL).

In the case of COc1c(N2C[C@@H]3CCCN[C@@H]3C2)c(F)cc2c(=O)c(C(=O)O)cn(C3CC3)c12 [MXF, Moxifloxacin], the MIC (C. difficile; [7]) is reported as 1 µg/mL (≈ 2.49 µM), the MIC (C. difficile; [8]) is reported as 2 µg/mL (≈ 4.98 µM) and the MIC (C. difficile; [9]) is reported as 2 µg/mL (≈ 4.98 µM). It also gave an MIC (C. difficile; [10]) of 2 µg/mL (≈ 4.98 µM), an MIC (C. difficile; [11]) of 32 µg/mL (≈ 79.7 µM) and an MIC (C. difficile; [12]) of 32 µg/mL (≈ 79.7 µM). It also gave an MIC (C. difficile; [13]) of 2 µg/mL (≈ 4.98 µM).

CN[C@H](CC(C)C)C(=O)N[C@H]1C(=O)N[C@@H](CC(N)=O)C(=O)N[C@H]2C(=O)N[C@H]3C(=O)N[C@H](C(=O)N[C@H](C(=O)O)c4cc(O)cc(O)c4-c4cc3ccc4O)[C@H](O)c3ccc(c(Cl)c3)Oc3cc2cc(c3O[C@@H]2O[C@H](CO)[C@@H](O)[C@H](O)[C@H]2O[C@H]2C[C@](C)(N)[C@H](O)[C@H](C)O2)Oc2ccc(cc2Cl)[C@H]1O [VAN, Vancomycin] showed an MIC (C. difficile; [7]) of 2 µg/mL (≈ 1.38 µM), an MIC (C. difficile; [8]) of 1 µg/mL (≈ 0.69 µM) and an MIC (C. difficile; [9]) of 1 µg/mL (≈ 0.69 µM). The MIC (C. difficile; [10]) was 2 µg/mL (≈ 1.38 µM), the MIC (C. difficile; [11]) was 1 µg/mL (≈ 0.69 µM) and the MIC (C. difficile; [12]) was 4 µg/mL (≈ 2.76 µM). For the same molecule, the MIC (C. difficile; [13]) was 1 µg/mL (≈ 0.69 µM).

Work on Cc1ncc([N+](=O)[O-])n1CCO [MDZ, Metronidazole] yielded an MIC (C. difficile; [7]) of 1 µg/mL (≈ 5.84 µM), an MIC (C. difficile; [8]) of 1 µg/mL (≈ 5.84 µM) and an MIC (C. difficile; [9]) of 2 µg/mL (≈ 11.7 µM). For the same molecule, the MIC (C. difficile; [10]) was 2 µg/mL (≈ 11.7 µM), the MIC (C. difficile; [11]) was 2 µg/mL (≈ 11.7 µM) and the MIC (C. difficile; [12]) was 1 µg/mL (≈ 5.84 µM). It also gave an MIC (C. difficile; [13]) of 2 µg/mL (≈ 11.7 µM).

Molecule CO[C@H]1/C=C/O[C@@]2(C)Oc3c(C)c(O)c4c(O)c(c(/C=N/N5CCN(C)CC5)c(O)c4c3C2=O)NC(=O)/C(C)=C\C=C\[C@H](C)[C@H](O)[C@@H](C)[C@@H](O)[C@@H](C)[C@H](OC(C)=O)[C@@H]1C [RIF, Rifampicin] has an MIC50 [1, 5] of 0.38 µM (≈ 0.313 µg/mL) and an MIC50 [2, 6] of 6.6 µM (≈ 5.43 µg/mL).

For C/C=C(\NC(=O)c1csc(-c2csc(-c3ccc4c(n3)-c3csc(n3)[C@H]([C@@H](C)O)NC(=O)c3csc(n3)[C@H](C(C)C)NC(=O)c3csc(n3)/C(=C/C)NC(=O)[C@H]([C@@H](C)O)NC(=O)c3csc-4n3)n2)n1)C(=O)NCC(C)=O [Micrococcin P2], the “secretion amount of IL-1B” value (Il-1B) was “significantly decreased”, the MIC50 (M. tuberculosis; H37RV, M. tuberculosis H37Rv) was 0.089 µM (≈ 0.102 µg/mL) and the MIC50 (M. tuberculosis; Pan-susceptible isolate #2 (Pan-S2)) was 0.199 µM (≈ 0.227 µg/mL). It also gave an MIC50 (M. tuberculosis; Pan-susceptible isolate #4 (Pan-S4)) of 0.356 µM (≈ 0.407 µg/mL), an MIC50 (M. tuberculosis; Pan-susceptible isolate #6 (Pan-S6)) of 0.354 µM (≈ 0.404 µg/mL) and an MIC50 (M. tuberculosis; Pan-susceptible isolate #7 (Pan-S7)) of 0.208 µM (≈ 0.238 µg/mL). It also gave an MIC (C. difficile; [7]) of 0.5 µg/mL (≈ 0.438 µM), an MIC (C. difficile; [8]) of 1 µg/mL (≈ 0.875 µM) and an MIC (C. difficile; [9]) of 2 µg/mL (≈ 1.75 µM). The MIC (C. difficile; ATCC51695) was 1 µg/mL (≈ 0.875 µM), the MIC (C. difficile; [11]) was 1 µg/mL (≈ 0.875 µM) and the MIC (C. difficile; [12]) was 1 µg/mL (≈ 0.875 µM). For the same molecule, the MIC (C. difficile; [13]) was 1 µg/mL (≈ 0.875 µM), the “secretion amount of IL-6” value (IL-6) was “significantly decreased” and the “death by C. difficile recurrence after drug administration” value ([3]; followed about 2 weeks) was “no death individual occurred by C. difficile recurrence”. For the same molecule, the survival rate ([3]; survival followed about 2 weeks) was 100%, the MIC50 ([1]; Mycobacterium intracellulare) was 0.033 µM (≈ 0.0377 µg/mL) and the MIC50 [4] was 0.654 µM (≈ 0.747 µg/mL). For the same molecule, the MIC50 ([2]; Mycobacterium avium) was 0.028 µM (≈ 0.032 µg/mL).
